Laboratory results taken from patent publication US20190282600A1, “COMBINATION THERAPIES TARGETING TERT DEPENDENCY FOR CANCER THERAPY” (The Wistar Institute of Anatomy and Biology, priority 2018, published 2019).

Key:
[1] = test system: NRAS mutant melanoma cells; assay: Cell viability, Alamar Blue assay; assay type: cell-based, Human
Description: (§1) FIGS. 2a to 2c show NRAS^mut melanoma cells (FIG. 2a), BRAF-V600E/NRAS mutant cells derived from melanoma patients resistant to BRAF/MEK inhibitors (FIG. 2b), or non-transformed melanocytes and fibroblasts (FIG. 2c) were treated with 6-thio-dG for 7 days. Cell viability was measured by Alamar Blue assay and calculated relative to DMSO-treated cells. […] Cell death was assessed by PSVUe staining. Percent of apoptotic cells is shown. […] Mean TRF length expressed as kilobase pairs is indicated at the bottom. […] FIG. 2g provides a bar graph showing that DNA damage was assessed by γH2AX staining. Data represent average from three independent experiments ±SEM. *p<0.05; **p<0.01; ***p<0.005 in unpaired Student's t-test. […] Tumor volume was measured and average tumor volume (n=4) ±SEM was plotted vs. time.
(§2) Cells were seeded in 96-well plates and treated with drugs. After 6 days, cell viability was assessed following 6h incubation with […] Alamar Blue (ThermoFisherScientific, Philadelphia, Pa.) by measuring fluorescence using an EnVision Xcite Multilabel plate reader (Perkin Elmer, Waltham, Mass.). Cell death was determined by flow cytometry using PSVue-643 (Molecular Targeting Technologies) or Annexin V (640919, Biolegend, San Diego, Calif.) and Propidium Iodide (Sigma) staining. Samples were analyzed using a BD LSRII flow cytometer (BD Biosciences, San Jose, Calif.).

[2] = test system: non-transformed primary human fibroblasts; assay: Cell viability, Alamar Blue assay; assay type: cell-based; settings: telomerase negative cells, 7 days
Description: as §1, §2

[3] = test system: non-transformed primary human melanocytes; assay: Cell viability, Alamar Blue assay; assay type: cell-based; settings: telomerase negative cells, 7 days
Description: as §1, §2

[4] = test system: NRAS mutant tumors (WM3000, M93-047); assay: NRAS mutant melanoma xenograft tumors in mice; assay type: in vivo; settings: for tumor growth: 6-Thio-dG 2.5 mg/kg i.p. q.d., single agent
Description: FIGS. 2a to 2c show NRAS^mut melanoma cells (FIG. 2a), BRAF-V600E/NRAS mutant cells derived from melanoma patients resistant to BRAF/MEK inhibitors (FIG. 2b), or non-transformed melanocytes and fibroblasts (FIG. 2c) were treated with 6-thio-dG for 7 days. Cell viability was measured by Alamar Blue assay and calculated relative to DMSO-treated cells. […] Cell death was assessed by PSVUe staining. Percent of apoptotic cells is shown. […] Mean TRF length expressed as kilobase pairs is indicated at the bottom. […] FIG. 2g provides a bar graph showing that DNA damage was assessed by γH2AX staining. Data represent average from three independent experiments ±SEM. *p<0.05; **p<0.01; ***p<0.005 in unpaired Student's t-test. As presented in FIG. 2h, mice bearing established WM3000 or M93-047 NRAS^mut tumors were treated with vehicle control or 6-thio-dG (2.5 mg/kg i.p; q.d). Tumor volume was measured and average tumor volume (n=4) ±SEM was plotted vs. time.
FIGS. 6a to 6e provide results showing that combining 6-thio-dG and Gamitrinib inhibits the growth of 3D melanoma spheroids and NRAS-mutant xenograft tumors. Collagen-embedded melanoma spheroids were treated with DMSO, 6-thio-dG (5 μM) and Gam (5 μM) as in FIGS. 4a to 4e. On day 7, spheroids were stained with Calcein AM (live cells; green) and EtBr (dead cells; red) and imaged using an inverted microscope (4X; scale bar=250 μm). […] P values were calculated using unpaired Student's t-test. *p<0.05, ** p<0.01, ***p<0.005, when comparing vehicle control vs. combination treatment groups. […] Kaplan Meier survival curves of mice treated for 14 days. p-values were calculated by Mantel-Cox log-rank test; *p<0.05, **p<0.01, ***p<0.005. Animal weight (grams) before treatment (Start of TX) and at the end of the study (End of TX) was assessed, recorded for every mouse enrolled in the study and plotted in FIG. 6e. […] Statistical significance was assessed by unpaired Student's t-test.
All animal experiments were performed in accordance with institutional guidelines. […] Tumor growth was measured twice weekly with digital calipers. […]

[5] = test system: NRAS-WT/BRAF-WT melanoma cells; assay: Cell death by Annexin V/PI flow cytometry; assay type: cell-based, Human; settings: 1 μM 6-thio-dG, 5 μM Gam, single agents or in combination
Description: FIGS. 5a to 5e provide bar graphs showing that combination treatment with 6-Thio-dG and Gamitrinib (Gam) triggers death selectively in NRAS mutant tumor cells. NRAS-WT/BRAF-WT melanoma cells (FIG. 5a), NRAS-WT/BRAF-mut melanoma cells (FIG. 5b), NRAS mutant neuroblastoma cells (FIG. 5c), NRAS-WT/KRAS-mutant colon cancer cells (FIG. 5d), and NRAS-WT/KRAS-mutant lung cancer cells were treated with 1 μM 6-thio-dG for 5 days (FIG. 5e). At day 5, culture medium was replaced and cells treated with 1 μM 6-thio-dG plus 5 μM Gam for two more days. Cells were stained with Annexin V and PI and percent cell death was determined by FACS. Data represent average of three independent experiments +/−SEM; p values were calculated using un-paired Student's t-test; *p<0.05; **p<0.001.
as §2

**Q.** For `Nc1nc2c(ncn2[C@H]2C[C@H](O)[C@@H](CO)O2)c(=S)[nH]1` [6-thio-dG, 6-thio-2′-deoxyguanosine], which cell viability ([1]; 6-thio-dG for 7 days, relative to DMSO) is on record?
**A.** impaired the viability

**Q.** What about the cell viability ([1]; cells driven by secondary mutations in NRAS from patients with acquired resistance to BRAF and MEK inhibitors, 7 days) of the same compound?
**A.** impaired the viability

**Q.** What about the cell viability [2] of the same compound?
**A.** did not significantly affect

**Q.** What about the cell viability [3] of the same compound?
**A.** did not significantly affect

**Q.** And the tumor growth [4]?
**A.** slowed, but did not completely abrogated tumor growth

**Q.** And the tumor growth ([4]; listed as 6-Thio-dG)?
**A.** slowed the growth of tumors

**Q.** What about the “reduction in tumor volume” value ([4]; 6-Thio-dG 2.5 mg/kg, after 14 days of treatment) of the same compound?
**A.** approximately 50%

**Q.** What about the cell death [5] of the same compound?
**A.** did not induce cell death
